# Target: T1, TNKS1 (Homo sapiens, UniProt O95271)
# T1 sequence (O95271 1-1327): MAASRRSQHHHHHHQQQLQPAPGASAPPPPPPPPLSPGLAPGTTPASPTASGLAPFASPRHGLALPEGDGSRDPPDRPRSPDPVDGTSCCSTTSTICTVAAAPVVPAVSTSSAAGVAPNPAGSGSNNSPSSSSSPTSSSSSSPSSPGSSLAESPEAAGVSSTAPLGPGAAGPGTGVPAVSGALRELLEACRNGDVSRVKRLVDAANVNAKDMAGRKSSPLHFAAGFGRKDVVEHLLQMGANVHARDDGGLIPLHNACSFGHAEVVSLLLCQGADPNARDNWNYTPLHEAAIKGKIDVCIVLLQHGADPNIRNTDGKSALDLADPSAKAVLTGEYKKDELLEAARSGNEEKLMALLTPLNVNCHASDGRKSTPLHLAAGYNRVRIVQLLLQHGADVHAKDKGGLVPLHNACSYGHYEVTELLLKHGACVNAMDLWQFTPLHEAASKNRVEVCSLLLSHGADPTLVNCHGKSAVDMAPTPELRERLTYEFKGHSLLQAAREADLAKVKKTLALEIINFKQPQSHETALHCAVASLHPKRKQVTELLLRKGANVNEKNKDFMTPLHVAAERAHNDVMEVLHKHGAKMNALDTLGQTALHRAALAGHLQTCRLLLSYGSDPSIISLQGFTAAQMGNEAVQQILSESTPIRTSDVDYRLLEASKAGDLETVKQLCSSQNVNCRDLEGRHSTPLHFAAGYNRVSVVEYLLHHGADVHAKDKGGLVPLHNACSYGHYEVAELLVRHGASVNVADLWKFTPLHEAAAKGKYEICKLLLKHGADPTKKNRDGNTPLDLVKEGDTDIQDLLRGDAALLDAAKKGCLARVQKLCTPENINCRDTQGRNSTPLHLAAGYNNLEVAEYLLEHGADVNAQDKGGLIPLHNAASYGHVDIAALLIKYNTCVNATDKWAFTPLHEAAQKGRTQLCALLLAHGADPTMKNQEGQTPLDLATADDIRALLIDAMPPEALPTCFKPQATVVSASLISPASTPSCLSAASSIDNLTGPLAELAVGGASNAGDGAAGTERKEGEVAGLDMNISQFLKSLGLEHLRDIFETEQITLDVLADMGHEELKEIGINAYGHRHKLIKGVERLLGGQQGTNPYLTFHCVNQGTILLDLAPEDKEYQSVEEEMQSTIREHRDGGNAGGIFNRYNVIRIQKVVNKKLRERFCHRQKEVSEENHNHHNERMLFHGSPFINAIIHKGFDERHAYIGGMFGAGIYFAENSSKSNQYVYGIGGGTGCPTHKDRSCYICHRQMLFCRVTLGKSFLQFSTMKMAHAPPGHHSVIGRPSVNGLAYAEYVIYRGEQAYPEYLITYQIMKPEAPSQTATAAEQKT
# Assay: Modified TNKS1 Assay 2 (auto-parsylation, [3H]-NAD+ SPA)
# Assay type: biochemical
# Settings: 6 nM TNKS1, 96 well
row,Compound,IC50
1,"CC(CN1CCOCC1)NC(=O)c1[nH]cnc1C(=O)Nc1ccc(NC(=O)c2ccc(F)cc2)cc1 (centres unmarked) [Example 294, N^4-{4-[(4-fluorobenzoyl)amino]phenyl}-N^5-[1-(morpholin-4-yl)propan-2-yl]-1H-imidazole-4,5-dicarboxamide]",210 nM
2,"CCc1nc(C(=O)Nc2ccc(NC(=O)c3ccc(F)cc3Cl)cc2)c(C(=O)NC)[nH]1 [Example 68, N^4-{4-[(2-chloro-4-fluorobenzoyl)amino]phenyl}-2-ethyl-N^5-methyl-1H-imidazole-4,5-dicarboxamide]",> 10000 nM
3,"CCNC(=O)c1nc[nH]c1C(=O)Nc1ccc(NC(=O)c2ncccc2Cl)cc1 [Example 261, N^5-(4-{[(3-chloropyridin-2-yl)carbonyl]amino}phenyl)-N^4-ethyl-1H-imidazole-4,5-dicarboxamide]",230 nM
4,"COC(=O)c1nc[nH]c1C(=O)Nc1ccc(NC(=O)c2ccc(F)cc2Cl)c(F)c1 [Example 71, methyl 5-({4-[(2-chloro-4-fluorobenzoyl)amino]-3-fluorophenyl}carbamoyl)-1H-imidazole-4-carboxylate]",100 nM
5,"O=C(Nc1ccc(NC(=O)c2[nH]cnc2C(=O)NCCc2ccccn2)cc1)c1ccc(F)cc1Cl [Example 387, N^5-{4-[(2-chloro-4-fluorobenzoyl)amino]phenyl}-N^4-[2-(pyridin-2-yl)ethyl]-1H-imidazole-4,5-dicarboxamide]",100 nM
6,"CNC(=O)c1nc[nH]c1C(=O)Nc1ccc(NC(=O)c2c(F)cc(F)cc2F)cc1 [Example 342, N^4-methyl-N^5-{4-[(2,4,6-trifluorobenzoyl)amino]phenyl}-1H-imidazole-4,5-dicarboxamide]",640 nM
7,"CNC(=O)c1nc[nH]c1C(=O)Nc1ccc(NC(=O)c2c(C)cccc2F)cc1 [Example 375, N^5-{4-[(2-fluoro-6-methylbenzoyl)amino]phenyl}-N^4-methyl-1H-imidazole-4,5-dicarboxamide]",1200 nM
8,"CNC(=O)c1nc[nH]c1C(=O)Nc1ccc(NC(=O)c2cccc(F)c2OC)cc1 [Example 367, N^5-{4-[(3-fluoro-2-methoxybenzoyl)amino]phenyl}-N^4-methyl-1H-imidazole-4,5-dicarboxamide]",> 10000 nM
9,"O=C(Nc1ccc(NC(=O)c2[nH]cnc2C(=O)N2CC3(COC3)C2)cc1)c1cc(F)c(F)cc1Cl [Example 52, N-{4-[(2-chloro-4,5-difluorobenzoyl)amino]phenyl}-4-(2-oxa-6-azaspiro[3.3]hept-6-ylcarbonyl)-1H-imidazole-5-carboxamide]",30 nM
10,"CNC(=O)c1nc[nH]c1C(=O)Nc1ccc(NC(=O)c2cncc(C)c2)cc1 [Example 366, N^4-methyl-N^5-(4-{[(5-methylpyridin-3-yl)carbonyl]amino}phenyl)-1H-imidazole-4,5-dicarboxamide]",> 10000 nM
11,"CNC(=O)c1nc[nH]c1C(=O)Nc1ccc(NC(=O)c2cc(F)ccc2OC)cc1 [Example 364, N^5-{4-[(5-fluoro-2-methoxybenzoyl)amino]phenyl}-N^4-methyl-1H-imidazole-4,5-dicarboxamide]",6100 nM
12,"O=C(Nc1ccc(NC(=O)c2[nH]cnc2C(=O)NC2CC2)cc1)c1cc(F)c(F)cc1Cl [Example 51, N^5-{4-[(2-chloro-4,5-difluorobenzoyl)amino]phenyl}-N^4-cyclopropyl-1H-imidazole-4,5-dicarboxamide]",20 nM
13,"CS(=O)(=O)c1ccc(C(=O)Nc2ccc(NC(=O)c3[nH]cnc3C(=O)NCCN3CCCCC3)cc2)c(Cl)c1 [Example 53, N^5-(4-{[2-chloro-4-(methylsulfonyl)benzoyl]amino}phenyl)-N^4-[2-(piperidin-1-yl)ethyl]-1H-imidazole-4,5-dicarboxamide]",20 nM
14,"CNC(=O)c1nc[nH]c1C(=O)Nc1ccc(NC(=O)c2cc(C#N)ccc2F)cc1 [Example 349, N^5-{4-[(5-cyano-2-fluorobenzoyl)amino]phenyl}-N^4-methyl-1H-imidazole-4,5-dicarboxamide]",2700 nM
15,"CC(CN1CCOCC1)NC(=O)c1[nH]cnc1C(=O)Nc1ccc(NC(=O)c2ccc(F)cc2Cl)cc1 (single isomer, unassigned; enantiomer 2) [Example 270, N^4-{4-[(2-chloro-4-fluorobenzoyl)amino]phenyl}-N^5-[1-(morpholin-4-yl)propan-2-yl]-1H-imidazole-4,5-dicarboxamide (enantiomer 2)]",4 nM
16,"O=C(Nc1ccc(NC(=O)c2[nH]cnc2C(=O)NCCC2CCCC2)cc1)c1ccc(F)cc1Cl [Example 42, N^5-{4-[(2-chloro-4-fluorobenzoyl)amino]phenyl}-N^4-(2-cyclopentylethyl)-1H-imidazole-4,5-dicarboxamide]",> 10000 nM
17,"CNC(=O)c1nc[nH]c1C(=O)Nc1ccc(NC(=O)c2ccc(C#N)cc2)cc1 [Example 322, N^5-{4-[(4-cyanobenzoyl)amino]phenyl}-N^4-methyl-1H-imidazole-4,5-dicarboxamide]",1000 nM
18,"CNC(=O)c1nc[nH]c1C(=O)Nc1ccc(NC(=O)c2ccon2)cc1 [Example 376, N^4-methyl-N^5-{4-[(1,2-oxazol-3-ylcarbonyl)amino]phenyl}-1H-imidazole-4,5-dicarboxamide]",> 10000 nM
19,"CNC(=O)c1nc[nH]c1C(=O)Nc1ccc(NC(=O)c2cc(OC(F)(F)F)ccc2Br)cc1 [Example 64, N^5-(4-{[2-bromo-5-(trifluoromethoxy)benzoyl]amino}phenyl)-N^4-methyl-1H-imidazole-4,5-dicarboxamide]",> 10000 nM
20,"CNC(=O)c1nc[nH]c1C(=O)Nc1ccc(NC(=O)c2ccc(Br)cc2Cl)cc1 [Example 334, N^5-{4-[(4-bromo-2-chlorobenzoyl)amino]phenyl}-N^4-methyl-1H-imidazole-4,5-dicarboxamide]",60 nM
21,"CNC(=O)c1nc[nH]c1C(=O)Nc1ccc(NC(=O)c2cccc(F)c2Cl)cc1 [Example 370, N^5-{4-[(2-chloro-3-fluorobenzoyl)amino]phenyl}-N^4-methyl-1H-imidazole-4,5-dicarboxamide]",> 10000 nM
22,"CNC(=O)c1nc[nH]c1C(=O)Nc1ccc(NC(=O)c2ccc(C)c(Cl)c2)cc1 [Example 344, N^5-{4-[(3-chloro-4-methylbenzoyl)amino]phenyl}-N^4-methyl-1H-imidazole-4,5-dicarboxamide]",> 10000 nM
23,"CN(C)CCNC(=O)c1nc[nH]c1C(=O)Nc1ccc(NC(=O)c2ccccc2Cl)c(F)c1 [Example 81, N^5-{4-[(2-chlorobenzoyl)amino]-3-fluorophenyl}-N^4-[2-(dimethylamino)ethyl]-1H-imidazole-4,5-dicarboxamide]",60 nM
24,"CNC(=O)c1nc[nH]c1C(=O)Nc1ccc(NC(=O)c2ccc(F)c(Cl)c2)cc1 [Example 340, N^5-{4-[(3-chloro-4-fluorobenzoyl)amino]phenyl}-N^4-methyl-1H-imidazole-4,5-dicarboxamide]",> 10000 nM
25,"CNC(=O)c1nc[nH]c1C(=O)Nc1ccc(NC(=O)c2cc(F)ccc2Cl)cc1 [Example 361, N^5-{4-[(2-chloro-5-fluorobenzoyl)amino]phenyl}-N^4-methyl-1H-imidazole-4,5-dicarboxamide]",140 nM
26,"CNC(=O)c1nc[nH]c1C(=O)Nc1ccc(NC(=O)c2nccnc2Cl)cc1 [Example 372, N^5-(4-{[(3-chloropyrazin-2-yl)carbonyl]amino}phenyl)-N^4-methyl-1H-imidazole-4,5-dicarboxamide]",5700 nM
